System: 454973-116-R2-J3-PDC spheroids, viability, % test/control
Test: Anticancer human tumor 454973-116-R2-J3-PDC patient-derived pancreatic carcinoma cell line growth inhibition [GQUAD]
Settings: spheroids with HUVEC and MSC; for IC50: curve of first compound; for viability, T/C: stronger effect = lower value; active = viability on the fitted dose curve at most 10% of control; inactive = the rest
Procedure, shortened: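 Tumor cells were grown as complex spheroids with HUVEC endothelial cells and mesenchymal stem cells as stroma. G-quadruplex stabilizers were combined with targeted agents over half-log dilutions from near the clinical Cmax, or from 10 microM.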

[1] = second compound 0.0316 µM, first compound 0.0316 µM
[2] = second compound 0.0316 µM, first compound 0.1 µM
[3] = second compound 0.0316 µM, first compound 0.316 µM
[4] = second compound 0.0316 µM, first compound 1 µM
[5] = second compound 0.0316 µM, first compound 3.16 µM
[6] = second compound 0.0316 µM, first compound 10 µM
[7] = second compound 0.1 µM, first compound 0.0316 µM
[8] = second compound 0.1 µM, first compound 0.1 µM
[9] = second compound 0.1 µM, first compound 0.316 µM
[10] = second compound 0.1 µM, first compound 1 µM
[11] = second compound 0.1 µM, first compound 3.16 µM
[12] = second compound 0.1 µM, first compound 10 µM
[13] = second compound 0.316 µM, first compound 0.0316 µM
[14] = second compound 0.316 µM, first compound 0.1 µM
[15] = second compound 0.316 µM, first compound 0.316 µM
[16] = second compound 0.316 µM, first compound 1 µM
[17] = second compound 0.316 µM, first compound 3.16 µM
[18] = second compound 0.316 µM, first compound 10 µM
[19] = second compound 1 µM, first compound 0.0316 µM
[20] = second compound 1 µM, first compound 0.1 µM
[21] = second compound 1 µM, first compound 0.316 µM
[22] = second compound 1 µM, first compound 1 µM
[23] = second compound 1 µM, first compound 3.16 µM
[24] = second compound 1 µM, first compound 10 µM
[25] = second compound 3.16 µM, first compound 0.0316 µM
[26] = second compound 3.16 µM, first compound 0.1 µM
[27] = second compound 3.16 µM, first compound 0.316 µM
[28] = second compound 3.16 µM, first compound 1 µM
[29] = second compound 3.16 µM, first compound 3.16 µM
[30] = second compound 3.16 µM, first compound 10 µM
[31] = second compound 10 µM, first compound 0.0316 µM
[32] = second compound 10 µM, first compound 0.1 µM
[33] = second compound 10 µM, first compound 0.316 µM
[34] = second compound 10 µM, first compound 1 µM
[35] = second compound 10 µM, first compound 3.16 µM
[36] = second compound 10 µM, first compound 10 µM
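Note: spheroids exposed to compounds for seven days.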
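Throughout, for viability, T/C: 100% = DMSO vehicle control viability.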

C#Cc1c(F)ccc2cc(O)cc(-c3ncc4c(N5CC6CCC(C5)N6)nc(OCC56CCCN5CC(F)C6)nc4c3F)c12 (centres undefined) + Cc1cnc(CNC(=O)c2c(=O)c3ccc(N4CCCN(C)CC4)nc3n3c2sc2ccccc23)cn1
active: viability, T/C [29] 9.16% | viability, T/C [30] 4.35% | viability, T/C [31] 0.16% | viability, T/C [32] 0.43% | viability, T/C [33] 0.47% | viability, T/C [34] 0.12% | viability, T/C [35] 0.27% | viability, T/C [36] 0.18%
< 0.0316 µM: IC50 (second compound 0.0316 µM) | IC50 (second compound 0.1 µM) | IC50 (second compound 0.316 µM) | IC50 (second compound 1 µM) | IC50 (second compound 3.16 µM) | IC50 (second compound 10 µM)
inactive: viability, T/C [1] 45.9% | viability, T/C [2] 40.8% | viability, T/C [3] 28.3% | viability, T/C [4] 23.2% | viability, T/C [5] 20.3% | viability, T/C [6] 17.8% | viability, T/C [7] 41.9% | viability, T/C [8] 33.3% | viability, T/C [9] 24% | viability, T/C [10] 20.1% | viability, T/C [11] 17.1% | viability, T/C [12] 16.1% | viability, T/C [13] 41.7% | viability, T/C [14] 24.4% | viability, T/C [15] 17.4% | viability, T/C [16] 17.1% | viability, T/C [17] 14.3% | viability, T/C [18] 11.4% | viability, T/C [19] 36.6% | viability, T/C [20] 24.2% | viability, T/C [21] 19% | viability, T/C [22] 16.5% | viability, T/C [23] 13.2% | viability, T/C [24] 10.7% | viability, T/C [25] 36.5% | viability, T/C [26] 22.6% | viability, T/C [27] 19.3% | viability, T/C [28] 12.6%

CC(C)(O)C1CCC(Nc2ccc3ncc(-c4cccc(C(F)(F)F)c4)n3n2)CC1 (centres undefined) + Cc1[nH]c2ccc(F)cc2c1-c1nc2c3cccnc3c3ncccc3c2[nH]1
1.58 µM: IC50 (second compound 1 µM)
1.86 µM: IC50 (second compound 0.0316 µM)
inactive: viability, T/C [1] 112% | viability, T/C [2] 97.4% | viability, T/C [3] 96.6% | viability, T/C [4] 76.8% | viability, T/C [5] 21.8% | viability, T/C [6] 32.2% | viability, T/C [7] 108% | viability, T/C [8] 100% | viability, T/C [9] 92.1% | viability, T/C [10] 78.1% | viability, T/C [11] 23.1% | viability, T/C [12] 29.8% | viability, T/C [13] 102% | viability, T/C [14] 98.1% | viability, T/C [15] 105% | viability, T/C [16] 78.4% | viability, T/C [17] 18.3% | viability, T/C [18] 31.6% | viability, T/C [19] 98.2% | viability, T/C [20] 95.6% | viability, T/C [21] 95.5% | viability, T/C [22] 67.1% | viability, T/C [23] 23.8% | viability, T/C [24] 22.8% | viability, T/C [25] 95.1% | viability, T/C [26] 98.8% | viability, T/C [27] 90.9% | viability, T/C [28] 67.3% | viability, T/C [29] 21.4% | viability, T/C [30] 31.4% | viability, T/C [31] 87.6% | viability, T/C [32] 81.3% | viability, T/C [33] 89% | viability, T/C [34] 59.6% | viability, T/C [35] 21.7% | viability, T/C [36] 30.7%
1.39 µM: IC50 (second compound 10 µM)
1.63 µM: IC50 (second compound 3.16 µM)
1.87 µM: IC50 (second compound 0.1 µM)
1.84 µM: IC50 (second compound 0.316 µM)

— PubChem BioAssay AID2060508 (Molecular Pharmacology Branch, DTP, NCI, 2025)
